The test system of assay [1] is Z. mobilis cell suspension (proton-dependent ATP synthase of the cytoplasmic membrane). The experiment in a line: ATP synthesis induced by artificial transmembrane pH gradient. The class given is cell-based, Zymomonas mobilis. Conditions: Z. mobilis starved cells; 10 μM, added 5 min before pH shift of 3.5–4.0 units; luciferin–luciferase. The procedure: (§1) Here, we assumed that any effect the AMPs exerted on the pH-induced ATP synthesis indicated a direct interaction between the peptide and the cytoplasmic membrane. After the induction of a pH gradient of 3.5–4.0 units in cell suspensions of both Z. mobilis and E. coli, we observed an abrupt increase in the intracellular ATP concentration, reaching its maximum value within a time span between 30 sec and 1 min. The magnitude of the observed ATP concentration rise approximately corresponded to previously published values. […] When added in amounts below the threshold value (Figure 4a,b), peptides had no inhibitory effect on the ATP response. […] Yet, such an effect elicits a much stronger physiological response in E. coli than in Z. mobilis.
(§2) ATP synthase activity induced by an artificial pH gradient was measured in non-growing starved cell suspensions. For the preparation of non-growing cell suspension, cells were harvested in the late exponential phase, sedimented, washed, and resuspended in 100 mM potassium phosphate buffer (pH 7.0), to a biomass concentration of 1.5–2.0 mg dry wt /mL. […] For ATP determination, 20 μL samples were quenched in ice-cold 10% TCA and assayed by the standard luciferin–luciferase method using a TECAN Infinite 200Pro microplate reader (Tecan, Männedorf, Switzerland). […]

Assay [2] concerns E. coli cell suspension (proton-dependent ATP synthase of the cytoplasmic membrane). Described as above. The class given is cell-based, Escherichia coli. Conditions: E. coli starved cells; 10 μM, added 5 min before pH shift of 3.5–4.0 units; luciferin–luciferase. The method, then: as §1, §2

With `N#CC(C#N)=NNc1cccc(Cl)c1` [ClCCP], the “effect on pH gradient-induced ATP synthesis” value is “almost complete de-energization and a dramatic drop of the ATP yield” in assay [1]; “almost complete de-energization and a dramatic drop of the ATP yield” in assay [2].

For the origin of these results see PMC11118514, “Eminent Antimicrobial Peptide Resistance in Zymomonas mobilis: A Novel Advantage of Intrinsically Uncoupled Energetics” (Antibiotics, 2024).
